Experiments:
[1] = molecular target: T1, human CTPS1 (Homo sapiens, UniProt P17812); assay: Human CTPS1 enzyme inhibition (ADP-Glo Max assay); format: biochemical; settings: 25° C., read-out: Human CTPS1 Enzyme Inhibition IC50, grouped by potency range
T1 construct: FLAG (GG linker + DYKDDDDK); His8 (GG linker + HHHHHHHH); purchased Proteros biostructures GmbH
T1 sequence (P17812 1-591): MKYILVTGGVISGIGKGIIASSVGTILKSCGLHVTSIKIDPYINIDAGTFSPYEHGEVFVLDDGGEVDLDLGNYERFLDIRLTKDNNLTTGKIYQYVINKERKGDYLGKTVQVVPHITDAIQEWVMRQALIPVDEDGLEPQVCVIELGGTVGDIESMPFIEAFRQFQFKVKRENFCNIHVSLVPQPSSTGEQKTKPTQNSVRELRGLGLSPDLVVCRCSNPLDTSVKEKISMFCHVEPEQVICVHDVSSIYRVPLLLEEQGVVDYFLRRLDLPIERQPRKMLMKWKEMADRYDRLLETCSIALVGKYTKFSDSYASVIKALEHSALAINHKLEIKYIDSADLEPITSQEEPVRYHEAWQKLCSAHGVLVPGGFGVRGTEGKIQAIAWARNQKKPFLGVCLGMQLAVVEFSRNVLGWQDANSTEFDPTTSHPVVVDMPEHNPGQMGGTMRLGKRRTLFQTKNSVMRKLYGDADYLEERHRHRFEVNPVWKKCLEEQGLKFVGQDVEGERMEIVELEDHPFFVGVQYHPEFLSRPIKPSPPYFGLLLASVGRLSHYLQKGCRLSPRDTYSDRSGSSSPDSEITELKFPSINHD
Experimental: The enzyme inhibitory activities of compounds invented against the target of interest were determined using the ADP-Glo™ Max assay (Promega, UK). Assays for human CTPS1 were performed in 1× assay buffer containing 50 mM Tris, 10 mM MgCl2, 0.01% Tween-20, pH to 8.0 accordingly. Finally, immediately before use, L-cysteine was added to the 1× assay buffer to a final concentration of 2 mM. All reagents are from Sigma-Aldrich unless specified otherwise.
Human full length active C-terminal FLAG-Hiss-tag CTPS1 (UniProtKB—P17812, CTPS1[1-591]-[…] (CTPS1[1-591]-SEQ ID NO: 1)) was obtained from Proteros biostructures GmbH.
3× human CTPS1 protein was prepared in 1× assay buffer to the final working protein concentration required for the reaction. A 2 uL volume per well of 3× human CTPS1 protein was mixed with 2 uL per well of 3× test compound (compound prepared in 1× assay buffer to an appropriate final 3× compound concentration respective to the concentration response curve designed for the compounds under test) for 10 minutes at 25° C. The enzymatic reaction was then initiated by addition of a 2 uL per well volume of a pre-mixed substrate mix (UltraPure ATP from ADP-GIo™ Max kit (0.31 mM), GTP (0.034 mM), UTP (0.48 mM) and L-glutamine (0.186 mM)) and the mixture was incubated for an appropriate amount of time within the determined linear phase of the reaction at 25° C. under sealed plate conditions with constant agitation at 500 revolutions per minute (rpm). ADP-GIo™ Max reagent was added for 60 minutes (6 μL per well) and subsequently ADP-GIo™ Max development reagent was added for 60 minutes (12 uL per well) prior to signal detection in a microplate reader (EnVision® Multilabel Reader, Perkin Elmer). Following each reagent addition over the course of the assay, assay plates were pulse centrifuged for 30 seconds at 500 rpm.
In all cases, the enzyme converts ATP to ADP and the ADP-Glo™ Max reagent subsequently depletes any remaining endogenous ATP in the reaction system. The ADP-Glo™ Max detection reagent converts the ADP that has been enzymatically produced back into ATP and using ATP as a substrate together with luciferin for the enzyme luciferase, light is generated which produces a detectable luminescence. […] The percentage inhibition produced by each concentration of compound was calculated using the equation shown below: […]
(§1) Percentage inhibition was then plotted against compound concentration, and the 50% inhibitory concentration (IC50) was determined from the resultant concentration-response curve.

[2] = tested on: Human CTPS1 Versus CTPS2; assay: RapidFire/MS-based enzyme selectivity assay, human CTPS1 versus CTPS2; format: biochemical; settings: RapidFire/MS IC50s
Experimental: Human CTPS1 Versus CTPS2 Selectivity Assessment by RapidFire/MS Analysis.
The enzyme inhibitory activities against each target isoform of interest may be determined for the compounds of the invention using an optimised RapidFire high-throughput mass spectrometry (RF/MS) assay format. RF/MS assays for both human CTPS1 and CTPS2 may be performed in assay buffer consisting of 50 mM HEPES (Merck), 20 mM MgCl2, 5 mM KCl, 1 mM DTT, 0.01% Tween-20, pH to 8.0 accordingly. Human full-length active C-terminal FLAG-His-tag CTPS1 (UniProtKB—P17812, CTPS1[1-591]-[…] (CTPS1[1-591]-SEQ ID NO: 1)) may be obtained from Proteros biostructures GmbH. Human full length active C-terminal FLAG-His-Avi tagged CTPS2 (UniProtKB—Q9NRF8, CTPS2 [1-586]—[…] (CTPS2 [1-586]-SEQ ID NO: 2)) may be obtained from Harker Bio.
Human CTPS (1 or 2) protein may be prepared in 1× assay buffer to the final working protein concentration required for the reaction. A 2 uL volume per well of 2×CTPS (1 or 2) protein may be mixed with 40 nL of compound using acoustic (ECHO) delivery and incubated for 10 minutes at 25° C. Each isoform enzymatic reaction may be subsequently initiated by addition of 2 uL per well of a 2× substrate mix in assay buffer. For hCTPS1: ATP (0.3 mM), UTP (0.2 mM), GTP (0.07 mM) and L-glutamine (0.1 mM). For hCTPS2: ATP (0.1 mM), UTP (0.04 mM), GTP (0.03 mM) and L-glutamine (0.1 mM). Each mixture may be incubated for an appropriate amount of time per isoform within the determined linear phase of the reaction at 25° C. A 60 uL volume of stop solution (1% formic acid with 0.5 uM ^13C9-^15N3-CTP in H2O) may be added and the plate immediately heat-sealed and centrifuged for 10 minutes at 4,000 rpm. Following centrifugation, plates may be loaded onto the Agilent RapidFire microfluidic solid phase extraction system coupled to an API4000 triple quadrupole mass spectrometer (RF/MS) for analysis.
In all cases, the enzyme converts UTP to CTP. Highly specific and sensitive multiple reaction monitoring (MRM) MS methods may be optimised for the detection of the enzymatic reaction product, CTP, and the stable isotope labelled product standard ^13C-^15N-CTP. Readout for data analysis may be calculated as the ratio between the peak area of the product CTP and the internal standard […]. For data reporting, the following equation may be used: […]
For each screening plate, the means of the negative (DMSO) and positive control values were used for the calculation of the respective assay window (S/B) and Z′ values. The median of the respective control values was used for calculation of percent inhibition according to the following equation: […]
as §1
Fold selectivity between CTPS1 and CTPS2 was subsequently calculated according to the following equation: […]

| SMILES | IC50 [1] | Fold selectivity between CTPS1 and CTPS2 (CTPS1) [2] |
| --- | --- | --- |
| CCOc1cncc(-c2ccc(NC(=O)C3(c4ccnc(NS(=O)(=O)C5CC5)n4)CCN(C)CC3)nc2)n1 [P231, 4-(2-(Cyclopropanesulfonamido)pyrimidin-4-yl)-N-(5-(6-ethoxypyrazin-2-yl)pyridin-2-yl)-1-methylpiperidine-4-carboxamide] | 100 to 1000 nM | +++ (>60 fold (+++)) |
| CCOc1cncc(-c2ccc(NC(=O)C3(c4ccnc(NS(=O)(=O)C5CC5)n4)CCN(C(C)C)CC3)nc2)n1 [P232, 4-(2-(Cyclopropanesulfonamido)pyrimidin-4-yl)-N-(5-(6-ethoxypyrazin-2-yl)pyridin-2-yl)-1-isopropylpiperidine-4-carboxamide] | 100 to 1000 nM | +++ (>60 fold (+++)) |
| CCOc1cncc(-c2ccc(NC(=O)C3(c4ccnc(NS(=O)(=O)C5CC5)n4)CCN(C(=O)NC(C)C)CC3)nc2)n1 [P233, 4-(2-(Cyclopropanesulfonamido)pyrimidin-4-yl)-N4-(5-(6-ethoxypyrazin-2-yl)pyridin-2-yl)-N1-isopropylpiperidine-1,4-dicarboxamide] | ≤ 100 nM | +++ (>60 fold (+++)) |
| CCOc1cncc(-c2ccc(NC(=O)C3(c4ccnc(NS(=O)(=O)C5CC5)n4)CCN(C(C)=O)CC3)nc2)n1 [P234, 1-Acetyl-4-(2-(cyclopropanesulfonamido)pyrimidin-4-yl)-N-(5-(6-ethoxypyrazin-2-yl)pyridin-2-yl)piperidine-4-carboxamide] | ≤ 100 nM | +++ (>60 fold (+++)) |
| CCOc1cncc(-c2ccc(NC(=O)C3(c4ccnc(NS(C)(=O)=O)n4)CCOCC3)nc2)n1 [P236, N-(5-(6-ethoxypyrazin-2-yl)pyridin-2-yl)-4-(2-(methylsulfonamido)pyrimidin-4-yl)tetrahydro-2H-pyran-4-carboxamide] | ≤ 100 nM | +++ (>60 fold (+++)) |
| CCOc1cncc(-c2ccc(NC(=O)C3(c4ccnc(NS(=O)(=O)C5CC5)n4)CCCCC3)nc2)n1 [P237, 1-(2-(cyclopropanesulfonamido)pyrimidin-4-yl)-N-(5-(6-ethoxypyrazin-2-yl)pyridin-2-yl)cyclohexane-1-carboxamide] | ≤ 100 nM | +++ (>60 fold (+++)) |
| CCOc1cncc(-c2ccc(NC(=O)C3(c4ccnc(NS(C)(=O)=O)n4)CCCCC3)nc2)n1 [P238, N-(5-(6-ethoxypyrazin-2-yl)pyridin-2-yl)-1-(2-(methylsulfonamido)pyrimidin-4-yl)cyclohexane-1-carboxamide] | ≤ 100 nM | +++ (>60 fold (+++)) |
| CCOc1cncc(-c2ccc(NC(=O)C3(c4cncc(NS(=O)(=O)C5CC5)n4)CCCCC3)nc2)n1 [P239, 1-(6-(cyclopropanesulfonamido)pyrazin-2-yl)-N-(5-(6-ethoxypyrazin-2-yl)pyridin-2-yl)cyclohexane-1-carboxamide] | ≤ 100 nM | +++ (>60 fold (+++)) |
| CCOc1cncc(-c2ccc(NC(=O)C3(c4ccnc(NS(=O)(=O)C5CC5)n4)CCOCC3)c(C)c2)n1 [P240, 4-(2-(cyclopropanesulfonamido)pyrimidin-4-yl)-N-(4-(6-ethoxypyrazin-2-yl)-2-methylphenyl)tetrahydro-2H-pyran-4-carboxamide] | ≤ 100 nM | + (2-30 fold (+)) |
| CCOc1cncc(-c2ccc(NC(=O)C3(c4ccnc(NS(=O)(=O)C5CC5)n4)CCC3)nc2)n1 [P241, 1-(2-(cyclopropanesulfonamido)pyrimidin-4-yl)-N-(5-(6-ethoxypyrazin-2-yl)pyridin-2-yl)cyclobutane-1-carboxamide] | ≤ 100 nM | +++ (>60 fold (+++)) |
| CCOc1cncc(-c2ccc(NC(=O)C3(c4nccc(NS(=O)(=O)C5CC5)n4)CCOCC3)nc2)n1 [P243, 4-(4-(cyclopropanesulfonamido)pyrimidin-2-yl)-N-(5-(6-ethoxypyrazin-2-yl)pyridin-2-yl)tetrahydro-2H-pyran-4-carboxamide] | ≤ 100 nM | +++ (>60 fold (+++)) |
| CCOc1cncc(-c2ccc(C(=O)NC3(c4ccnc(NS(=O)(=O)C5CC5)n4)CC3)nc2)n1 [P257, N-(1-(2-(cyclopropanesulfonamido)pyrimidin-4-yl)cyclopropyl)-5-(6-ethoxypyrazin-2-yl)picolinamide] | 100 to 1000 nM | – |
| CCOc1cncc(-c2ccc(NC(=O)C3(c4ccnc(NS(=O)(=O)C5CC5)n4)CCS(=O)(=O)CC3)nc2)n1 [P259, 4-(2-(cyclopropanesulfonamido)pyrimidin-4-yl)-N-(5-(6-ethoxypyrazin-2-yl)pyridin-2-yl)tetrahydro-2H-thiopyran-4-carboxamide 1,1-dioxide] | ≤ 100 nM | – |
| CCOc1cncc(-c2ccc(NC(=O)C3(c4ccnc(NS(=O)(=O)CC)n4)CCOCC3)nc2)n1 [P262, N-(5-(6-ethoxypyrazin-2-yl)pyridin-2-yl)-4-(2-(ethylsulfonamido)pyrimidin-4-yl)tetrahydro-2H-pyran-4-carboxamide] | ≤ 100 nM | – |
| CCOc1cncc(-c2ccc(NC(=O)C3(c4ccnc(NS(=O)(=O)CC5CC5)n4)CCOCC3)nc2)n1 [P263, 4-(2-(cyclopropylmethylsulfonamido)pyrimidin-4-yl)-N-(5-(6-ethoxypyrazin-2-yl)pyridin-2-yl)tetrahydro-2H-pyran-4-carboxamide] | 100 to 1000 nM | – |

From patent publication US12466810B2, “N-(5-(6-ethoxypyrazin-2-yl)pyridin-2-yl)-4-(2-(methylsulfonamido)pyrimidin-4-yl) tetrahydro-2H-pyran-4-carboxamide derivatives and related compounds as human CTPS1 inhibitors for the treatment of proliferative diseases” (Step Pharma S.A.S., priority 2019, dated 2025)
